Results on one compound are retold here after patent publication EP1827382B1, “NOVEL GALENIC SYSTEM FOR ACTIVE PRINCIPLE TRANSPORT, PREPARATION METHOD AND USE” (Capsugel France, priority 2004, dated 2006).

A short description of this series: Resistance test in acid medium (omeprazole content after neutralisation, over time). It is filed as physicochemical. The note with it: stirred medium pH 1,2, 37,5°C; omeprazole assayed by HPLC after neutralisation to pH=6,8, over time; figure 1. The procedure: Pour déterminer la résistance au pH acide, les préparations sont placées en milieu agité à pH 1,2 à 37,5°C. La résistance au pH acide est déterminée par le dosage du taux d'Oméprazole après neutralisation à pH=6,8 en fonction du temps.
L'Oméprazole est dosée par HPLC après extraction.

On to `COc1ccc2[nH]c([S+]([O-])Cc3ncc(C)c(OC)c3C)nc2c1` (stereo not shown) [Oméprazole libre, Oméprazole], for which the “résistance au pH acide” value is given as “dégradé en quelques minutes”.
